Source: patent US10800792B2, “Inhibitors of Bruton's tyrosine kinase and method of their use” (JANSSEN PHARMACEUTICA NV, priority 2015, dated 2020)

Molecular target: unphosphorylated-BTK kinase domain (UP-BTK), GST-tagged human BTK (389-659aa) (Homo sapiens (Human), UniProt Q06187)
Experiment: BTK kinase Lanthascreen binding assay
Conditions: pIC50 = negative log of the IC50 in molar; 60 minutes incubation, 50 nM Tracer 236
Outline: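 Measures how well compounds compete with a fluorescence-labelled tracer for binding to BTK in its unphosphorylated state. IC50 values were fitted and expressed as pIC50 (negative logarithm of the molar IC50).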

Sequence of unphosphorylated-BTK kinase domain (UP-BTK), GST-tagged human BTK (389-659aa) (Q06187 389-659): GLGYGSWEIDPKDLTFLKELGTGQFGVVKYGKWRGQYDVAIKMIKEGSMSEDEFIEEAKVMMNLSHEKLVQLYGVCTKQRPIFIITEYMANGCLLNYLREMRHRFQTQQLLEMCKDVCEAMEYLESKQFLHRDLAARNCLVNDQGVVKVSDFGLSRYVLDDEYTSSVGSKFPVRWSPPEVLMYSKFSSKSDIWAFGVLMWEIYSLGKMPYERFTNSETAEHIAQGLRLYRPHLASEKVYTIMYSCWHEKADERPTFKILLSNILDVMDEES

Structure (SMILES) | BTK_I_binding pIC50
Cc1cc(Oc2ccccc2)ccc1N1C(=O)Nc2c(C(=O)NC3CCN(C)C(C)C3)sc3nccc1c23 (centres unmarked) [Example 203, N-(1,2-Dimethylpiperidin-4-yl)-5-(2-methyl-4-phenoxyphenyl)-4-oxo-4,5-dihydro-3H-1-thia-3,5,8-triazaacenaphthylene-2-carboxamide] | 6.5
C=C(C)C(=O)N1CCC[C@@H](NC(=O)c2sc3nccc4c3c2NC(=O)N4c2ccc(Oc3ccccc3)cc2C)C1 [Example 204, (R)—N-(1-Methacryloylpiperidin-3-yl)-5-(2-methyl-4-phenoxyphenyl)-4-oxo-4,5-dihydro-3H-1-thia-3,5,8-triazaacenaphthylene-2-carboxamide] | 6.9
Cc1cc(Oc2ccccc2)ccc1N1C(=O)Nc2c(C(=O)NC3CCCN(C(=O)C4CC4)C3)sc3nccc1c23 (centres unmarked) [Example 205, N-(1-(Cyclopropanecarbonyl)piperidin-3-yl)-5-(2-methyl-4-phenoxyphenyl)-4-oxo-4,5-dihydro-3H-1-thia-3,5,8-triazaacenaphthylene-2-carboxamide] | 6.8
Cc1cc(Oc2ccccc2)ccc1N1C(=O)Nc2c(C(=O)NC3CCCCN(C)C3)sc3nccc1c23 (centres unmarked) [Example 206, 5-(2-Methyl-4-phenoxyphenyl)-N-(1-methylazepan-3-yl)-4-oxo-4,5-dihydro-3H-1-thia-3,5,8-triazaacenaphthylene-2-carboxamide] | 7.1
Cc1cc(Oc2ccccc2)ccc1N1C(=O)Nc2c(C(=O)N[C@@H]3CCCN(C(=O)[C@H]4CCOC4)C3)sc3nccc1c23 [Example 207, 5-(2-Methyl-4-phenoxyphenyl)-4-oxo-N—((R)-1-((S)-tetrahydrofuran-3-carbonyl)piperidin-3-yl)-4,5-dihydro-3H-1-thia-3,5,8-triazaacenaphthylene-2-carboxamide] | 7.1
CO[C@@H]1CN(C)C[C@@H]1NC(=O)c1sc2nccc3c2c1NC(=O)N3c1ccc(Oc2ccccc2)cc1C [Example 208, N-((3S,4R)-4-Methoxy-1-methylpyrrolidin-3-yl)-5-(2-methyl-4-phenoxyphenyl)-4-oxo-4,5-dihydro-3H-1-thia-3,5,8-triazaacenaphthylene-2-carboxamide] | 6.8
C=CC(=O)N1CC[C@@H](NC(=O)c2sc3nccc4c3c2NC(=O)N4c2c(Cl)ccc3c2OCO3)C1 [Example 209, (R)—N-(1-Acryloylpyrrolidin-3-yl)-5-(5-chlorobenzo[d][1,3]dioxol-4-yl)-4-oxo-4,5-dihydro-3H-1-thia-3,5,8-triazaacenaphthylene-2-carboxamide] | 7.1
Cc1cccc(Oc2ccc(N3C(=O)Nc4c(C(=O)N[C@@H]5CCCN(C)C5)sc5nccc3c45)c(C)c2)c1 [Example 210, (R)-5-(2-Methyl-4-(m-tolyloxy)phenyl)-N-(1-methylpiperidin-3-yl)-4-oxo-4,5-dihydro-3H-1-thia-3,5,8-triazaacenaphthylene-2-carboxamide] | 6.7
CO[C@@H]1CNC[C@@H]1NC(=O)c1sc2nccc3c2c1NC(=O)N3c1ccc(Oc2ccccc2)cc1C [Example 211, N-((3S,4R)-4-Methoxypyrrolidin-3-yl)-5-(2-methyl-4-phenoxyphenyl)-4-oxo-4,5-dihydro-3H-1-thia-3,5,8-triazaacenaphthylene-2-carboxamide] | 6.7
CCNC(C)(C)/C=C(\C#N)C(=O)N1CCC[C@@H](NC(=O)c2sc3nccc4c3c2NC(=O)N4c2ccc(Oc3ccccc3)cc2C)C1 [Example 212, (R,E)-N-(1-(2-Cyano-4-(ethylamino)-4-methylpent-2-enoyl)piperidin-3-yl)-5-(2-methyl-4-phenoxyphenyl)-4-oxo-4,5-dihydro-3H-1-thia-3,5,8-triazaacenaphthylene-2-carboxamide] | 7.0
Cc1cc(Oc2ccccc2)ccc1N1C(=O)Nc2c(C(=O)N[C@@H]3CCCN(C4CC4)C3)sc3nccc1c23 [Example 213, (R)—N-(1-Cyclopropylpiperidin-3-yl)-5-(2-methyl-4-phenoxyphenyl)-4-oxo-4,5-dihydro-3H-1-thia-3,5,8-triazaacenaphthylene-2-carboxamide] | 6.5

More lines, now with the values ahead:

BTK_I_binding pIC50 | Structure (SMILES)
6.8 | Cc1cc(Oc2cccc(F)c2)ccc1N1C(=O)Nc2c(C(=O)N[C@@H]3CCCN(C)C3)sc3nccc1c23 [Example 214, (R)-5-(4-(3-Fluorophenoxy)-2-methylphenyl)-N-(1-methylpiperidin-3-yl)-4-oxo-4,5-dihydro-3H-1-thia-3,5,8-triazaacenaphthylene-2-carboxamide]
7.2 | COCCC(=O)N1CCC[C@@H](NC(=O)c2sc3nccc4c3c2NC(=O)N4c2ccc(Oc3ccccc3)cc2F)C1 [Example 215, (R)-5-(2-Fluoro-4-phenoxyphenyl)-N-(1-(3-methoxypropanoyl)piperidin-3-yl)-4-oxo-4,5-dihydro-3H-1-thia-3,5,8-triazaacenaphthylene-2-carboxamide]
6.7 | C=CC(=O)N1CCC[C@@H](NC(=O)c2sc3nccc4c3c2NC(=O)N4c2ccccc2C)C1 [Example 216, (R)—N-(1-Acryloylpiperidin-3-yl)-4-oxo-5-(o-tolyl)-4,5-dihydro-3H-1-thia-3,5,8-triazaacenaphthylene-2-carboxamide]
6.5 | Cc1cc(Oc2ccccc2)ccc1N1C(=O)Nc2c(C(=O)NCCN3CCNC3=O)sc3nccc1c23 [Example 217, 5-(2-Methyl-4-phenoxyphenyl)-4-oxo-N-(2-(2-oxoimidazolidin-1-yl)ethyl)-4,5-dihydro-3H-1-thia-3,5,8-triazaacenaphthylene-2-carboxamide]
6.8 | Cc1cc(Oc2ccccc2)ccc1N1C(=O)Nc2c(C(=O)N[C@H]3CNC[C@@H]3F)sc3nccc1c23 [Example 218, N-((3S,4S)-4-Fluoropyrrolidin-3-yl)-5-(2-methyl-4-phenoxyphenyl)-4-oxo-4,5-dihydro-3H-1-thia-3,5,8-triazaacenaphthylene-2-carboxamide]
6.9 | Cc1cc(Oc2ccccc2)ccc1N1C(=O)Nc2c(C(=O)N[C@@H]3CCCN(C(=O)C4CCOCC4)C3)sc3nccc1c23 [Example 219, (R)-5-(2-Methyl-4-phenoxyphenyl)-4-oxo-N-(1-(tetrahydro-2H-pyran-4-carbonyl)piperidin-3-yl)-4,5-dihydro-3H-1-thia-3,5,8-triazaacenaphthylene-2-carboxamide]
6.5 | Cc1cc(Oc2ccccc2O)ccc1N1C(=O)Nc2c(C(=O)N[C@@H]3CCCN(C)C3)sc3nccc1c23 [Example 220, (R)-5-(4-(2-Hydroxyphenoxy)-2-methylphenyl)-N-(1-methylpiperidin-3-yl)-4-oxo-4,5-dihydro-3H-1-thia-3,5,8-triazaacenaphthylene-2-carboxamide]
6.7 | Cc1cc(Oc2ccccc2)cc(F)c1N1C(=O)Nc2c(C(=O)N[C@@H]3CCCN(C)C3)sc3nccc1c23 [Example 222, (R)-5-(2-Fluoro-6-methyl-4-phenoxyphenyl)-N-(1-methylpiperidin-3-yl)-4-oxo-4,5-dihydro-3H-1-thia-3,5,8-triazaacenaphthylene-2-carboxamide]
6.6 | Cc1cc(Oc2ccccc2C(C)C)ccc1N1C(=O)Nc2c(C(=O)N[C@@H]3CCCN(C)C3)sc3nccc1c23 [Example 223, (R)-5-(4-(2-Isopropylphenoxy)-2-methylphenyl)-N-(1-methylpiperidin-3-yl)-4-oxo-4,5-dihydro-3H-1-thia-3,5,8-triazaacenaphthylene-2-carboxamide]
